Structures can show the parent of a compound that is named as a salt.
What was measured:
Type in all cases: cell-based
sonic hedgehog pathway [1] = assay: Human hedgehog reporter assay HEPM-GliLuc (HGL); settings: HepM human embryonic palatal mesenchymal cells, Gli-luciferase reporter
Summary of the method: (§1)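 Luminescence read-out of gli-promoter luciferase in stably transfected cells; 11-point 1:3 dose curves, 24 h compound exposure in 0.5% FBS, ± octyl-modified Hh protein 1–5 ng/ml. AMAX as % of plate low/high controls; EC50 from curve; >20% AMAX counted active.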

sonic hedgehog pathway [2] = assay: Hedgehog pathway Gli-luciferase reporter assay, S12 cells; settings: S12 mouse embryonic mesenchymal cells, read-out: S12 Avg. EC50
From the text: Mouse (TM3: mouse Leydig cells; S12: mouse embryonic mesenchymal cells) and human (Daoy: human medulloblastoma cell; HepM: human embryonic palatal mesenchymal cell) cell lines are used to screen small molecules for their ability to modulate the activity of the sonic hedgehog pathway (Table 1, Table 2, and Table 3). Stable hedgehog pathway reporter cell lines are established by specific antibiotic selection following transfection of a reporter plasmid containing a luciferase gene located directly downstream from the gli promoter. Consequently, any observable changes in cellular luciferase activity may be attributed to changes in sonic hedgehog pathway activity in mouse and human cells, respectively, since gli is the major by-product of this pathway. To calculate activity, we generate an eleven point dose curve for each compound using 1:3 dilutions in 96 well assay plates. Each plate tested also contains low and high control to establish maximal pathway activation so to establish/compare a percentage activation of each tested compound (AMAX) on respective plates. Also we calculate EC50 values, or a concentration where the pathway will be exactly 50% activated, for each tested compound to determine potency. In these cell lines, compounds that register >20% AMAX values are considered active.
Stable hedgehog pathway reporter cell lines are established following specific antibiotic selection following transfection of a reporter plasmid In short, typically cells are plated in MicroTiter-plates at 10,000-20,000 cells per well, in growth media (containing 10%-20% FBS). After 48-72 hrs (HGL and DGL respectively) the media in the assay plates is switched to low-serum containing media (0.5% FBS). At that time compounds are added (at 1-5 μM) to the assay plates, in the presence or absence of hedgehog protein (octyl-modified version; 1-5 ng/ml). After another 24 hrs of incubation, the media from the assay plates is discarded and replaced with luciferase assay-mix. Subsequently, plates are incubated at RT for ˜15-30 mins and then read in a luminometer. [note: addition of the Hedgehog protein, although not critical, will sensitize the assay allowing the identification of weak actives].

sonic hedgehog pathway [3] = assay: Hedgehog pathway Gli-luciferase reporter assay, TM3 cells; settings: TM3 mouse Leydig cells
Summary of the method: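 Reporter cells stably selected after gli-luciferase plasmid transfection; test article dosed over 11 points (1:3). Read as luminescence after 24 h treatment in 0.5% serum; activity >20% AMAX versus plate controls deemed active.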

sonic hedgehog pathway [4] = assay: Human hedgehog reporter assay Daoy-GliLuc (DGL); settings: Daoy human medulloblastoma cells, Gli-luciferase reporter; read-out: Daoy Avg. EC50
Summary of the method: as §1

Structure (SMILES): CN[C@H]1CC[C@@H](N(Cc2cc(-c3ccc(C(=O)N(C)C)cc3)ccc2OC)C(=O)c2sc3ccccc3c2Cl)CC1 [317 (R19)]
- EC50 (sonic hedgehog pathway [1]): < 50 nM
- EC50 (sonic hedgehog pathway [2]): < 50 nM
- EC50 (sonic hedgehog pathway [3]): < 50 nM

Structure (SMILES): CN[C@H]1CC[C@@H](N(Cc2cc(-c3ccnc(C(N)=O)c3)ccc2OC)C(=O)c2sc3c(F)ccc(F)c3c2Cl)CC1 [354 (R17)]
- EC50 (sonic hedgehog pathway [1]): < 50 nM
- EC50 (sonic hedgehog pathway [2]): < 50 nM
- EC50 (sonic hedgehog pathway [4]): < 50 nM
- EC50 (sonic hedgehog pathway [3]): < 50 nM

Structure (SMILES): CN[C@H]1CC[C@@H](N(Cc2cc(-c3cccnc3)ccc2OC)C(=O)c2sc3cccc(F)c3c2Cl)CC1 [360 (R16), 3-Chloro-4-fluoro-benzo[b]thiophene-2-carboxylic acid (2-methoxy-5-pyridin-3-yl-benzyl)-(4-methylamino-cyclohexyl)-amide dihydrochloride]
- EC50 (sonic hedgehog pathway [1]): < 50 nM
- EC50 (sonic hedgehog pathway [2]): < 50 nM
- EC50 (sonic hedgehog pathway [4]): < 50 nM
- EC50 (sonic hedgehog pathway [3]): < 50 nM

Structure (SMILES): CN[C@H]1CC[C@@H](N(Cc2cc(-c3ccc(N)nc3)ccc2OC)C(=O)c2sc3cccc(F)c3c2Cl)CC1 [362 (R13), 3-Chloro-4-fluoro-benzo[b]thiophene-2-carboxylic acid [5-(6-amino-pyridin-3-yl)-2-methoxy-benzyl]-(4-methylamino-cyclohexyl)-amide dihydrochloride]
- EC50 (sonic hedgehog pathway [1]): < 50 nM
- EC50 (sonic hedgehog pathway [2]): < 50 nM
- EC50 (sonic hedgehog pathway [4]): < 50 nM
- EC50 (sonic hedgehog pathway [3]): < 50 nM

Structure (SMILES): CN[C@H]1CC[C@@H](N(Cc2cc(-c3ccc(C(C)=O)cc3)ccc2OC)C(=O)c2sc3ccccc3c2Cl)CC1 [Compound 303, 3-Chloro-benzo[b]thiophene-2-carboxylic acid (4′-acetyl-4-methoxy-biphenyl-3-ylmethyl)-(4-methylamino-cyclohexyl)-amide hydrochloride]
- EC50 (sonic hedgehog pathway [1]): < 50 nM
- EC50 (sonic hedgehog pathway [2]): < 50 nM
- EC50 (sonic hedgehog pathway [4]): < 50 nM
- EC50 (sonic hedgehog pathway [3]): < 50 nM

Structure (SMILES): CN[C@H]1CC[C@@H](N(Cc2cc(-c3ccc(C(N)=O)cc3)ccc2OC)C(=O)c2sc3ccccc3c2Cl)CC1 [Compound 316, 3-Chloro-benzo[b]thiophene-2-carboxylic acid (4′-carbamoyl-4-methoxy-biphenyl-3-ylmethyl)-(4-methylamino-cyclohexyl)-amide hydrochloride]
- EC50 (sonic hedgehog pathway [1]): < 50 nM
- EC50 (sonic hedgehog pathway [2]): < 50 nM
- EC50 (sonic hedgehog pathway [3]): < 50 nM

Structure (SMILES): CN[C@H]1CC[C@@H](N(Cc2cc(-c3ccc(N)nc3)ccc2OC)C(=O)c2sc3ccccc3c2Cl)CC1 [Compound 319, 3-Chloro-benzo[b]thiophene-2-carboxylic acid [5-(6-amino-pyridin-3-yl)-2-methoxy-benzyl]-(4-methylamino-cyclohexyl)-amide dihydrochloride]
- EC50 (sonic hedgehog pathway [1]): < 50 nM
- EC50 (sonic hedgehog pathway [2]): < 50 nM
- EC50 (sonic hedgehog pathway [3]): < 50 nM

Structure (SMILES): CN[C@H]1CC[C@@H](N(Cc2cc(-c3ccc(CO)cc3)ccc2OC)C(=O)c2sc3ccccc3c2Cl)CC1 [Compound 329, 3-Chloro-benzo[b]thiophene-2-carboxylic acid (4′-hydroxymethyl-4-methoxy-biphenyl-3-ylmethyl)-(4-methylamino-cyclohexyl)-amide hydrochloride]
- EC50 (sonic hedgehog pathway [1]): < 50 nM
- EC50 (sonic hedgehog pathway [2]): < 50 nM
- EC50 (sonic hedgehog pathway [3]): < 50 nM

Structure (SMILES): CN[C@H]1CC[C@@H](N(Cc2cc(-c3ccc(C(C)=O)cc3)ccc2OC)C(=O)c2sc3c(F)ccc(F)c3c2Cl)CC1 [Compound 332, 3-Chloro-4,7-difluoro-benzo[b]thiophene-2-carboxylic acid (4′-acetyl-4-methoxy-biphenyl-3-ylmethyl)-(4-methylamino-cyclohexyl)-amide hydrochloride]
- EC50 (sonic hedgehog pathway [1]): < 50 nM
- EC50 (sonic hedgehog pathway [2]): < 50 nM
- EC50 (sonic hedgehog pathway [4]): < 50 nM
- EC50 (sonic hedgehog pathway [3]): < 50 nM

Structure (SMILES): CN[C@H]1CC[C@@H](N(Cc2cc(-c3ccc(C(=O)N(C)C)cc3)ccc2OC)C(=O)c2sc3c(F)ccc(F)c3c2Cl)CC1 [Compound 333, 3-Chloro-4,7-difluoro-benzo[b]thiophene-2-carboxylic acid (4′-dimethylcarbamoyl-4-methoxy-biphenyl-3-ylmethyl)-(4-methylamino-cyclohexyl)-amide hydrochloride]
- EC50 (sonic hedgehog pathway [1]): < 50 nM
- EC50 (sonic hedgehog pathway [2]): < 50 nM
- EC50 (sonic hedgehog pathway [4]): < 50 nM
- EC50 (sonic hedgehog pathway [3]): < 50 nM

Structure (SMILES): CN[C@H]1CC[C@@H](N(Cc2cc(-c3ccc(C)nc3)ccc2OC)C(=O)c2sc3c(F)ccc(F)c3c2Cl)CC1 [Compound 334, 3-Chloro-4,7-difluoro-benzo[b]thiophene-2-carboxylic acid [2-methoxy-5-(6-methyl-pyridin-3-yl)-benzyl]-(4-methylamino-cyclohexyl)-amide bis(trifluoroacetate)]
- EC50 (sonic hedgehog pathway [1]): < 50 nM
- EC50 (sonic hedgehog pathway [2]): < 50 nM
- EC50 (sonic hedgehog pathway [4]): < 50 nM
- EC50 (sonic hedgehog pathway [3]): < 50 nM

Structure (SMILES): CN[C@H]1CC[C@@H](N(Cc2cc(-c3ccc(S(C)(=O)=O)cc3)ccc2OC)C(=O)c2sc3c(F)ccc(F)c3c2Cl)CC1 [Compound 335, 3-Chloro-4,7-difluoro-benzo[b]thiophene-2-carboxylic acid (4′-methanesulfonyl-4-methoxy-biphenyl-3-ylmethyl)-(4-methylamino-cyclohexyl)-amide hydrochloride]
- EC50 (sonic hedgehog pathway [1]): < 50 nM
- EC50 (sonic hedgehog pathway [2]): < 50 nM
- EC50 (sonic hedgehog pathway [4]): < 50 nM
- EC50 (sonic hedgehog pathway [3]): < 50 nM

Structure (SMILES): CN[C@H]1CC[C@@H](N(Cc2cc(-c3ccnc(N)c3)ccc2OC)C(=O)c2sc3c(F)ccc(F)c3c2Cl)CC1 [Compound 355]
- EC50 (sonic hedgehog pathway [1]): < 50 nM
- EC50 (sonic hedgehog pathway [2]): < 50 nM
- EC50 (sonic hedgehog pathway [3]): < 50 nM

Structure (SMILES): CN[C@H]1CC[C@@H](N(Cc2cc(-c3ccncc3)ccc2O)C(=O)c2sc3c(F)ccc(F)c3c2Cl)CC1 [Compound 368, 3-Chloro-4,7-difluoro-benzo[b]thiophene-2-carboxylic acid (2-hydroxy-5-pyridin-4-yl-benzyl)-(4-methylamino-cyclohexyl)-amide dihydrochloride]
- EC50 (sonic hedgehog pathway [1]): < 50 nM
- EC50 (sonic hedgehog pathway [2]): < 50 nM
- EC50 (sonic hedgehog pathway [4]): < 50 nM

Structure (SMILES): CN[C@H]1CC[C@H](N(Cc2cc(-c3ccccc3S(C)(=O)=O)ccc2OC)C(=O)c2sc3c(F)ccc(F)c3c2Cl)CC1 [Compound 411, 3-Chloro-4,7-difluoro-benzo[b]thiophene-2-carboxylic acid (2′-methanesulfonyl-4-methoxy-biphenyl-3-ylmethyl)-(4-methylamino-cyclohexyl)-amide hydrochloride]
- EC50 (sonic hedgehog pathway [2]): 250 to 1000 nM
- EC50 (sonic hedgehog pathway [4]): 1000 to 2500 nM

Structure (SMILES): CN[C@H]1CC[C@H](N(Cc2cc(-c3cccc(S(C)(=O)=O)c3)ccc2OC)C(=O)c2sc3c(F)ccc(F)c3c2Cl)CC1 [Compound 412, 3-Chloro-4,7-difluoro-benzo[b]thiophene-2-carboxylic acid (3′-methanesulfonyl-4-methoxy-biphenyl-3-ylmethyl)-(4-methylamino-cyclohexyl)-amide hydrochloride]
- EC50 (sonic hedgehog pathway [2]): < 50 nM
- EC50 (sonic hedgehog pathway [4]): < 50 nM

Structure (SMILES): CN[C@H]1CC[C@H](N(Cc2cc(-c3cccnc3OC)ccc2OC)C(=O)c2sc3cccc(F)c3c2Cl)CC1 [Compound 413]
- EC50 (sonic hedgehog pathway [2]): 50 to 250 nM
- EC50 (sonic hedgehog pathway [4]): < 50 nM

Structure (SMILES): CCOc1cc(-c2ccc(OC)c(CN(C(=O)c3sc4c(F)ccc(F)c4c3Cl)[C@H]3CC[C@H](NC)CC3)c2)ccn1 [Compound 414]
- EC50 (sonic hedgehog pathway [2]): 50 to 250 nM
- EC50 (sonic hedgehog pathway [4]): < 50 nM

Structure (SMILES): CCOc1cc(-c2ccc(OC)c(CN(C(=O)c3sc4cccc(F)c4c3Cl)[C@H]3CC[C@H](NC)CC3)c2)ccn1 [Compound 415]
- EC50 (sonic hedgehog pathway [2]): 50 to 250 nM
- EC50 (sonic hedgehog pathway [4]): 50 to 250 nM

Structure (SMILES): COc1ccc(-c2cncc(F)c2)cc1CN(C(=O)c1sc2c(F)ccc(F)c2c1Cl)[C@H]1CC[C@@H](N)CC1 [Compound 416]
- EC50 (sonic hedgehog pathway [2]): < 50 nM
- EC50 (sonic hedgehog pathway [4]): 50 to 250 nM

Structure (SMILES): COc1ccc(-c2ccncc2F)cc1CN(C(=O)c1sc2c(F)ccc(F)c2c1Cl)[C@H]1CC[C@@H](N)CC1 [Compound 417]
- EC50 (sonic hedgehog pathway [2]): < 50 nM
- EC50 (sonic hedgehog pathway [4]): < 50 nM

Structure (SMILES): COc1ccc(-c2cc[n+](C)cc2)cc1CN(C(=O)c1sc2c(F)ccc(F)c2c1Cl)[C@H]1CC[C@@H](N)CC1 [Compound 418]
- EC50 (sonic hedgehog pathway [2]): 1000 to 2500 nM
- EC50 (sonic hedgehog pathway [4]): < 50 nM

Structure (SMILES): CN[C@H]1CC[C@@H](N(Cc2cc(-c3ccc(NS(C)(=O)=O)nc3)ccc2OC)C(=O)c2sc3c(F)ccc(F)c3c2Cl)CC1 [Compound R10, 3-Chloro-4,7-difluoro-benzo[b]thiophene-2-carboxylic acid [5-(6-methanesulfonylamino-pyridin-3-yl)-2-methoxy-benzyl]-(4-methylamino-cyclohexyl)-amide dihydrochloride]
- EC50 (sonic hedgehog pathway [1]): < 50 nM
- EC50 (sonic hedgehog pathway [2]): < 50 nM
- EC50 (sonic hedgehog pathway [3]): < 50 nM
